Drawing on patent US7135466B2 (Kirin Beer Kabushiki Kaisha, priority 1999, dated 2006), this text covers IC50 and inhibition for 22 compounds.

The target in one assay is T1, PDGF-Ra (Homo sapiens, UniProt P16234).
T1 construct: host or cells: G-292 human osteosarcoma cells
Put plainly: Inhibitory activity against PDGF-Ra phosphorylation by PDGF-AA stimulation using G292. Format: cell-based. As to conditions: for IC50: > means inhibition at indicated concentration not more than 50%, < and << not less than 50%, read-out: PDGF (E) IC50; for inhibition at 0.1 µM: G292, figure in parentheses in >100( ), at 100 nM, read-out: PDGF (E) inhibition (%) at 100 nM. The method in brief:
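Phospho-PDGF-Ra ELISA: capture with PY-20 antiphosphotyrosine, detection with anti-PDGF-Ra and peroxidase secondary, read at 450 nm. Lysates came from G-292 osteosarcoma cells starved in 0.1% FBS, compound-treated 1 hr at 37° C, and stimulated with 50 ng/ml PDGF-AA for 5 min.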

The next assay addresses T2, c-kit (Homo sapiens, UniProt P10721).
T2 construct: MO7e (human megakaryocytic leukemia cell line) which had been arrested for 20 hr; endogenous in cells; host or cells: MO7e human megakaryocytic leukemia cell line
Put plainly: Inhibitory activity against c-kit autophosphorylation (MO7e cells, h-SCF). Format: cell-based. To be noted: for IC50: h-SCF stimulation; for inhibition at 1 µM: Mo7e, figure in parentheses in −( ), at 1000 nM. The method in brief:
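MO7e human megakaryocytic leukemia cells, arrested 20 hr, treated with compound 1 hr, then stimulated with 50 ng/ml h-SCF for 5 min and lysed. Lysates captured on immobilized anti-phosphotyrosine antibody, detected with anti-c-kit primary and HRP secondary antibody; absorbance at 450 nm.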

[1] abbreviates: MO7e cells, read-out: c-kit IC50.

Read-outs that look alike come from different tables or passages of the source.

T2 sequence (P10721 26-976): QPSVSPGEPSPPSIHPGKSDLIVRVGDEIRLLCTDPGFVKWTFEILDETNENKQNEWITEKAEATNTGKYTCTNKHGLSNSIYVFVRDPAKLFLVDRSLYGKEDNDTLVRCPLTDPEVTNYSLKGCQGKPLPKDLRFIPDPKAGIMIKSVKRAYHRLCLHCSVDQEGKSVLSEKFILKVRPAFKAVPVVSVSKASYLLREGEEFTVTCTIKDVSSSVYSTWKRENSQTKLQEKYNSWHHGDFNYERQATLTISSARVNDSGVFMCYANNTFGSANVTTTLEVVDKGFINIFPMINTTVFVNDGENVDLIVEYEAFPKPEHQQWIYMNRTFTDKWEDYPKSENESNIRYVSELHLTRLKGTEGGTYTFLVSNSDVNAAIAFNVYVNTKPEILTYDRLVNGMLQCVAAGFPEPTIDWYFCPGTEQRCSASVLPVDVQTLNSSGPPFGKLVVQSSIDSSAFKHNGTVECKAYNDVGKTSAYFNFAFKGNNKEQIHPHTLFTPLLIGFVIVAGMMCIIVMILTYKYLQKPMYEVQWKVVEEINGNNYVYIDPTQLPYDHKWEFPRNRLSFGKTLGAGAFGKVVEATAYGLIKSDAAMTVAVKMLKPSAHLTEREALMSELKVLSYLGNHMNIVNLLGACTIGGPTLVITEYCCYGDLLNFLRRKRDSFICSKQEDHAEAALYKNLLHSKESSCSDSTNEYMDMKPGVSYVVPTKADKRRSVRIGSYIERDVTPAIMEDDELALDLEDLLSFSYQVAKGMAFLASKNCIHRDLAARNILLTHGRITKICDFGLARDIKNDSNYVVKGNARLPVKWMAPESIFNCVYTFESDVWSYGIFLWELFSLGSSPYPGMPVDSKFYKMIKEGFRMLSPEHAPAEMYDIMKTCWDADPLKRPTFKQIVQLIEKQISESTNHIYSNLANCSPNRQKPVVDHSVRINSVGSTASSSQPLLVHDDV
T1 sequence (P16234 24-1089): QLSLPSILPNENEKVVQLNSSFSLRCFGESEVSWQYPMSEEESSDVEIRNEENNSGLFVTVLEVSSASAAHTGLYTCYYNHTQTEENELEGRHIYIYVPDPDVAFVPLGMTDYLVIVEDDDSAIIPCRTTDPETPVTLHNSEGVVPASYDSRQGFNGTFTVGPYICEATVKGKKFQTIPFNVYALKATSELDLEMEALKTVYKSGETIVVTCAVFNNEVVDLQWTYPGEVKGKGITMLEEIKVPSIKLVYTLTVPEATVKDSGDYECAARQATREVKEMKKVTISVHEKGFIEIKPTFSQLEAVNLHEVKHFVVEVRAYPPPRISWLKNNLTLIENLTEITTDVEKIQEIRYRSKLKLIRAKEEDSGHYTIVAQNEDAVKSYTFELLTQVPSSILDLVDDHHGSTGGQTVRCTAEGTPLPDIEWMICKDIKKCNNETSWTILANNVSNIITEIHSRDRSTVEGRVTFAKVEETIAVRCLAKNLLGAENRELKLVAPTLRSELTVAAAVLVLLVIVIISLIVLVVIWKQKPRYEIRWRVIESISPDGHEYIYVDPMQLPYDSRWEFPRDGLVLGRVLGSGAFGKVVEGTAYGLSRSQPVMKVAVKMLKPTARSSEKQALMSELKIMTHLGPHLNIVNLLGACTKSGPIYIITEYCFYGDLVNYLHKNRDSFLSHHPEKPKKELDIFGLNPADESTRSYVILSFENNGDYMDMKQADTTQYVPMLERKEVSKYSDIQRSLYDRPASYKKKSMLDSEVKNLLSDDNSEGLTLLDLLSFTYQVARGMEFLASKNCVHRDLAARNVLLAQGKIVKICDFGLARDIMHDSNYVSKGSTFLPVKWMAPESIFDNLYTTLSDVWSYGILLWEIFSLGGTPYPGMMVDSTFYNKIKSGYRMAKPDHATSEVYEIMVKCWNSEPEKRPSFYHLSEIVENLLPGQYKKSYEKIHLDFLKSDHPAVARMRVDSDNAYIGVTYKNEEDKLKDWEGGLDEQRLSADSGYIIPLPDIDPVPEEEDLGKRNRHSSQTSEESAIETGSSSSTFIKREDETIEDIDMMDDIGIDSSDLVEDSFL

Consider `COc1cc2nccc(Oc3ccc(NC(=S)NC(=O)COCc4ccccc4)c(F)c3)c2cc1OC` [Example 1031, N-[2-(Benzyloxy)acetyl]-N′-{4-[(6,7-dimethoxy-4-quinolyl)oxy]-2-fluorophenyl}thiourea], for which the figures for the IC50 at PDGF-Ra and on c-kit (setting [1]) were 10 nM and 254 nM, respectively.

Regarding `COc1cc2nccc(Oc3ccc(NC(=S)NC(=O)COCc4ccccc4)cc3F)c2cc1OC` [Example 1032, N-[2-(Benzyloxy)acetyl]-N′-{4-[(6,7-dimethoxy-4-quinolyl)oxy]-3-fluorophenyl}thiourea], the IC50 on PDGF-Ra is under 10 nM; on c-kit (setting [1]), 321 nM.

As for `COc1cc2nccc(Oc3ccc(NC(=S)NC(=O)c4ccc(C)s4)cc3F)c2cc1OC` [Example 1040, N-{4-[(6,7-Dimethoxy-4-quinolyl)oxy]-3-fluorophenyl}-N′-[(5-methyl-2-thienyl)carbonyl]thiourea], the results for the IC50 on PDGF-Ra and at c-kit (setting [1]) were under 10 nM and 414 nM, respectively.

With `CCN(CC)C(=O)NC(=S)Nc1ccc(Oc2ccnc3cc(OC)c(OC)cc23)cc1` [Example 1041, N-{4-[(6,7-Dimethoxy-4-quinolyl)oxy]phenyl}-{[(diethylamino)carbonyl]amino}methanethioamide], the IC50 was found to be 12 nM at PDGF-Ra and 98 nM at c-kit (setting [1]).

With `COc1cc2nccc(Oc3ccc(NC(=S)NC(=O)N(CCCl)CCCl)cc3)c2cc1OC` [Example 1042, N-{4-[(6,7-Dimethoxy-4-quinolyl)oxy]phenyl}-[{[di(2-chloroethyl)amino]carbonyl}amino]methanethioamide], the IC50 came to 39 nM at PDGF-Ra and 107 nM against c-kit (c-kit IC50, MO7e cells).

`COc1cc2nccc(Oc3ccc(NC(=S)NC(=O)N(C(C)C)C(C)C)cc3)c2cc1OC` [Example 1043, N-{4-[(6,7-Dimethoxy-4-quinolyl)oxy]phenyl}-{[(diisopropylamino)carbonyl]amino}methanethioamide]: the values for the concentration for half-maximal inhibition (IC50) on PDGF-Ra and at c-kit (setting [1]) were 27 nM and 449 nM, respectively.

For the compound `COc1cc2nccc(Oc3ccc(NC(=S)NC(=O)N4CCCC4)cc3)c2cc1OC` [Example 1044, N-{4-[(6,7-Dimethoxy-4-quinolyl)oxy]phenyl}-N′-tetrahydro-1H-1-pyrrolylcarbonylthiourea], the IC50 at PDGF-Ra was under 10 nM; on c-kit (setting [1]), 136 nM.

`COc1cc2nccc(Oc3ccc(NC(=S)NC(=O)N4CCOCC4)cc3)c2cc1OC` [Example 1045, N-{4-[(6,7-Dimethoxy-4-quinolyl)oxy]phenyl}-N′-morpholinocarbonylthiourea]: the IC50 amounted to 17 nM on PDGF-Ra and 193 nM on c-kit (setting [1]).

As for `COc1cc2nccc(Oc3ccc(NC(=S)NC(=O)N(C)c4ccccc4)cc3)c2cc1OC` [Example 1046, N-{4-[(6,7-Dimethoxy-4-quinolyl)oxy]phenyl}-{[(methylanilino)carbonyl]amino}methanethioamide], the IC50 on PDGF-Ra was determined as 38 nM; at c-kit (setting [1]), 202 nM.

For the compound `CCN(CC)C(=O)NC(=S)Nc1ccc(Oc2ccnc3cc(OC)c(OC)cc23)c(Cl)c1` [Example 1048, N-{3-Chloro-4-[(6,7-dimethoxy-4-quinolyl)oxy]phenyl}-{[(diethylamino)carbonyl]amino}methanethioamide], the IC50 is under 10 nM on PDGF-Ra and 250 nM at c-kit (setting [1]).

Take `COc1cc2nccc(Oc3ccc(NC(=S)NC(=O)N(C(C)C)C(C)C)cc3Cl)c2cc1OC` [Example 1050, N-{3-Chloro-4-[(6,7-dimethoxy-4-quinolyl)oxy]phenyl}-{[(diisopropylamino)carbonyl]amino}methanethioamide]: the figures for the IC50 on PDGF-Ra and at c-kit (setting [1]) were 23 nM and 579 nM, respectively.

Turning to `COc1cc2nccc(Oc3ccc(NC(=S)NC(=O)N4CCCC4)cc3Cl)c2cc1OC` [Example 1051, N-{3-Chloro-4-[(6,7-dimethoxy-4-quinolyl)oxy]phenyl}-N′-tetrahydro-1H-1-pyrrolylcarbonylthiourea], the IC50 worked out at 14 nM on PDGF-Ra and 418 nM on c-kit (setting [1]).

On to `COc1cc2nccc(Oc3ccc(NC(=S)NC(=O)N4CCOCC4)cc3Cl)c2cc1OC` [Example 1052, N-{3-Chloro-4-[(6,7-dimethoxy-4-quinolyl)oxy]phenyl}-N′-morpholinocarbonylthiourea], for which the IC50 on PDGF-Ra was 21 nM; at c-kit (setting [1]), 408 nM.

As to `COc1cc2nccc(Oc3ccc(NC(=S)NC(=O)N4c5ccccc5CCc5ccccc54)cc3Cl)c2cc1OC` [Example 1054, N-{3-Chloro-4-[(6,7-dimethoxy-4-quinolyl)oxy]phenyl}-N′-[10,11-dihydro-5H-dibenzo(b,f)azepin-5-ylcarbonyl]thiourea], the IC50 at PDGF-Ra turned out to be 27 nM. Besides, on c-kit, the inhibition at 1 µM amounted to 19%.

Consider `COc1cc2nccc(Oc3ccc(NC(=S)NC(=O)C4CC4c4ccccc4)cc3)c2cc1OC` (stereo not shown) [Example 1055, N-{4-[(6,7-Dimethoxy-4-quinolyl)oxy]phenyl}-N′-[(2-phenylcyclopropyl)carbonyl]thiourea], for which the IC50 came to 16 nM on PDGF-Ra and 312 nM on c-kit (setting [1]).

For `COc1cc2nccc(Oc3ccc(NC(=S)NC(=O)C4CC4)cc3Cl)c2cc1OC` [Example 1058, N-{3-Chloro-4-[(6,7-dimethoxy-4-quinolyl)oxy]phenyl}-N′-cyclopropylcarbonylthiourea], on PDGF-Ra, the IC50 is 8 nM. The inhibition at 1 µM on c-kit came to 21%.

Consider `COc1cc2ncnc(Oc3ccc(NC(=S)NC(=O)C4CC4c4ccccc4)cc3)c2cc1OC` (stereo not shown) [Example 1060, N-{4-[(6,7-Dimethoxy-4-quinazolinyl)oxy]phenyl}-N′-[(2-phenylcyclopropyl)carbonyl]thiourea], for which, on PDGF-Ra, the IC50 was found to be 39 nM. Besides, the inhibition at 1 µM at c-kit stood at 30%.

For `CCOCCC(=O)NC(=S)Nc1ccc(Oc2ccnc3cc(OC)c(OC)cc23)cc1` [Example 1065, N-{4-[(6,7-Dimethoxy-4-quinolyl)oxy]phenyl}-N′-(3-ethoxypropanoyl)thiourea], the IC50 on PDGF-Ra turned out to be 19 nM; at c-kit (setting [1]) it was 566 nM.

Take `CCOCCC(=O)NC(=S)Nc1ccc(Oc2ccnc3cc(OC)c(OC)cc23)c(Cl)c1` [Example 1071, N-{3-Chloro-4-[(6,7-dimethoxy-4-quinolyl)oxy]phenyl}-N′-(3-ethoxypropanoyl)thiourea]: at PDGF-Ra, the IC50 was over 100 nM and the inhibition at 0.1 µM worked out at 17%. The inhibition at 1 µM on c-kit worked out at 0%.

Take `CCCCC(C)C(=O)NC(=S)Nc1ccc(Oc2ccnc3cc(OC)c(OC)cc23)cc1` (stereo not shown) [Example 1074, N-{4-[(6,7-Dimethoxy-4-quinolyl)oxy]phenyl}-N′-(2-methylhexanoyl)thiourea]: the IC50 on PDGF-Ra was under 10 nM; on c-kit (setting [1]), 289 nM.

Turning to `CCCCC(C)C(=O)NC(=S)Nc1ccc(Oc2ccnc3cc(OC)c(OC)cc23)c(Cl)c1` (stereo not shown) [Example 1077, N-{3-Chloro-4-[(6,7-dimethoxy-4-quinolyl)oxy]phenyl}-N′-(2-methylhexanoyl)thiourea], the values for the IC50 on PDGF-Ra and at c-kit (setting [1]) were 48 nM and 379 nM, respectively.

As for `COc1cc2nccc(Oc3ccc(NC(=S)NC(=O)c4ccccc4C)c(Cl)c3)c2cc1OC` [Example 1101, N-{2-Chloro-4-[(6,7-dimethoxy-4-quinolyl)oxy]phenyl}-N′-(2-methylbenzoyl)thiourea], on PDGF-Ra, the IC50 was over 100 nM and the inhibition at 0.1 µM turned out to be 37%. For the same compound, the inhibition at 1 µM at c-kit stood at 26%.

What is called IC50 is the concentration that inhibits the measured activity by half. The term inhibition denotes the change of the read-out against control, counted positive when it falls.
